For experiment [1], the system named is Salmonella (five Salmonella enterica serovars). Description: Cat kibble challenge with dried five strain Salmonella cocktail inoculum. Conditions: for Salmonella counts on challenged cat kibble vs control palatant (in words): cat kibble challenge. It is filed as cell-based. As for the experimental part: (§1) One ml of each Salmonella culture was separately inoculated into a beaker containing tempered (ambient), sterilized MBM which was then incubated at 37° C. for 48 hours. Inoculated MBM was dispensed (approx. 200 g) into sterile 250 ml centrifuge bottles and centrifuged at 5,000 rpm for 10 minutes. The supernatant was decanted and autoclaved for disposal. The pellets were suspended in 10 ml TSB-20% glycerol. Suspensions (approximately 150-160 g) were transferred to sterilized 250 ml polycarbonate straight side wide mouth jars with lids (Nalgene, Thermo Scientific). Jars containing MBM-Salmonella suspensions were immediately frozen at −70° C. for 1 hour. Frozen MBM-Salmonella suspensions were lyophilized using a FreeZone-1 Liter benchtop freeze dry system (Labconco) (approx. 96 hours, −50° C.). Each lyophilized Salmonella culture was pulverized to a fine powder using a sterile mortar and pestle. Twenty g of each of the five lyophilized Salmonella cultures was combined in a sterile wide mouth glass jar to make the dried Salmonella cocktail inoculum. […] Solidified plates were incubated inverted at 37° C. for 16-18 hours. Visible colonies were counted and colony forming units per gram were calculated (CFU/g). […] Kibble and inoculum were mixed together for five minutes by hand in a plastic zip top bag, and allowed to rest for 1 hour prior to sampling. Coated, un-inoculated kibble was also included in the study and tested for Salmonella (direct plating and FDA BAM), total aerobic bacteria, mold and yeast counts, pH, percent moisture, and water activity. For each analysis time point challenged kibble was sampled in triplicate. Kibbles were stored at ambient temperature.
(§2) Challenged kibble samples bags were mixed thoroughly, then 5.00 g (±0.01) was aseptically weighed into a sterile plastic bag and diluted with 45 ml sterile Phosphate Buffer (Butterfield) diluent (BPB) containing (g/l) KH2PO4 34.0, pH adjusted to 7.2 with 1N sodium hydroxide and homogenized using a Stomacher (Seward Stomacher 80) for 1 minute and serially diluted in BPB for plating. The plates are poured with tempered (45° C.) XLD agar. After solidification, plates were inverted and placed in an incubator (37° C.). Colonies were counted and CFU/g was calculated. The counts for each triplicate sample were averaged and expressed as log CFU/g. Those samples of which were below the detection limit of <10 CFU/g were assigned 0 log CFU/g for the purpose of statistical analysis. Analysis of Variance using the LSD separation of means method was performed to analyze the data using StatGraphics software (StatPoint Technologies, Inc. Warrenton, Va.).
All procedures for the Phase 3 kibble challenge were conducted as described for Phase 2.

The subject of a further experiment is cats. Description: Cat palatability, two-pan method (intake ratio). Format: in vivo. Conditions: for IR-A: Ration B incumbent; for effect on palatability / taste (in words): summary statement, no trial details.
For experiment [2], the system named is Salmonella (five Salmonella enterica serovars). Description: Dog kibble challenge with dried five strain Salmonella cocktail inoculum. It is filed as cell-based. Conditions: dog kibble challenge. On the procedure: as §1, §2
Dry dog palatants were formulated with fumaric acid or SBS to deliver 0.5% acid to the surface of the kibble. The effect of each acid on Salmonella challenged on the surface of dog kibble was examined. Dog kibbles were challenged with dried five strain Salmonella cocktail inoculum.
The effect of each acid on Salmonella challenged on the surface of dog kibble was examined. Dog kibbles were challenged with dried five strain Salmonella cocktail inoculum prep.

The mark [3] stands for this setting: Table 14, single acid 0.5% on cat kibble, day 0.
The mark [4] stands for this setting: Table 14, single acid 0.5% on cat kibble, day 1.
[5] abbreviates: Table 14, single acid 0.5% on cat kibble, day 3.
Where [6] appears, read: Table 14, single acid 0.5% on cat kibble, day 7.
Where [7] appears, read: Table 14, single acid 0.5% on cat kibble, day 14.
Setting [8] is: Table 14, single acid 0.5% on cat kibble, day 23.
The mark [9] stands for this setting: Example 4 cat trials, formula 89-87 or 89-145 vs incumbent dry palatant.
The mark [10] stands for this setting: Second set, Formula 89-87, 0.25% acid on kibble.
The mark [11] stands for this setting: First set, Prototype 89-87 at 2.5%, 0.25% acid on kibble.
[12] abbreviates: First set, Prototype 89-87 at 2.5%, 0.5% total acid on kibble.
The mark [13] stands for this setting: Second set, Formula 89-87, 0.5% total acid on kibble.

Consider `O=C(OC[C@H]1O[C@@H](OC(=O)c2cc(O)c(O)c(OC(=O)c3cc(O)c(O)c(O)c3)c2)[C@H](OC(=O)c2cc(O)c(O)c(OC(=O)c3cc(O)c(O)c(O)c3)c2)[C@@H](OC(=O)c2cc(O)c(O)c(OC(=O)c3cc(O)c(O)c(O)c3)c2)[C@@H]1OC(=O)c1cc(O)c(O)c(OC(=O)c2cc(O)c(O)c(O)c2)c1)c1cc(O)c(O)c(OC(=O)c2cc(O)c(O)c(O)c2)c1` [TA, tannic acid], for which the Salmonella in experiment [1] (setting [3]) is 3.19 ± 0.17^Aa log CFU/g; in experiment [1] (setting [4]) it was 2.51 ± 0.26^Ab log CFU/g; in experiment [1] (setting [5]), 2.05 ± 0.18^Ab log CFU/g; in experiment [1] (setting [6]) it was 1.50 ± 0.10^Ac log CFU/g; in experiment [1] (setting [7]) it was 1.46 ± 0.16^Ac log CFU/g; in experiment [1] (setting [8]), 0.00 ± 0.00^Bd log CFU/g. Also, in experiment [1], the “Salmonella counts on challenged cat kibble vs control palatant (in words)” value is reported as “effective at significantly reducing Salmonella”. In addition, the “palatability (in words)” value in the experiment with cats (setting [9]) is on record as “acceptable palatability”. Besides, the IR-A in the experiment with cats (setting [10]) was 0.55 (N.S).
For `O=C(O)/C=C\C(=O)O` [maleic acid, reference compound], in the experiment with cats, the “effect on palatability / taste (in words)” value is listed as “repulsive, astringent taste”.
Take `O=C(O)CCC(=O)O` [Suc, succinic acid]: the “Salmonella counts on challenged dog kibble vs control palatant (in words)” value in experiment [2] is recorded as “effective at significantly reducing Salmonella”. For the same molecule, in experiment [1], the “Salmonella counts on challenged cat kibble vs control palatant (in words)” value is listed as “effective at significantly reducing Salmonella”. In the experiment on cats (setting [9]), the “palatability (in words)” value is recorded as “palatable alternate to fumaric acid”. Besides, the results for the IR-A in the experiment with cats (setting [11]) and in the experiment on cats (setting [12]) were 0.56 (N.S.) and 0.54 (N.S.), respectively.
Consider `O=C(O)CC(O)C(=O)O` (stereo not drawn) [Malic acid, reference compound], for which the “effect on palatability / taste (in words)” value in the experiment with cats was “adverse effects on palatability”.
In the case of `C/C=C/C=C/C(=O)O` [Sorbic Acid, sorbic acid], the “Salmonella counts on challenged dog kibble vs control palatant (in words)” value in experiment [2] is on record as “effective at significantly reducing Salmonella”. The Salmonella is on record as 3.50 ± 0.06^Ba log CFU/g in experiment [1] (Table 12, 0.50% total acid on cat kibble, day 0); 2.10 ± 0.08^Bb log CFU/g in experiment [1] (Table 12, 0.50% total acid on cat kibble, day 1); 0.77 ± 0.39^Bc log CFU/g in experiment [1] (Table 12, 0.50% total acid on cat kibble, day 5); 0.49 ± 0.49^Bc log CFU/g in experiment [1] (Table 12, 0.50% total acid on cat kibble, day 7); 0.67 ± 0.33^Bc log CFU/g in experiment [1] (Table 12, 0.50% total acid on cat kibble, day 14); 0.00 ± 0.00^Bc log CFU/g in experiment [1] (Table 12, 0.50% total acid on cat kibble, day 21). Besides, the “Salmonella counts on challenged cat kibble vs control palatant (in words)” value in experiment [1] (listed as sorbic) is on record as “effective at significantly reducing Salmonella”; in experiment [1] (listed as sorbic acid) it was “significantly lower”. Moreover, the IR-A with cats (Confirmation trials, Prototype 89-87, 0.5% total acid on kibble) is 0.59 p ≤ 0.001); with cats (setting [11]) it was 0.74 (p ≤ 0.001); with cats (setting [12]), 0.70 (p ≤ 0.001). The “palatability (in words)” value is listed as “scored significantly higher than the incumbent flavor” with cats (Example 4 cat trials, formula 89-87 or 89-145 vs incumbent dry palatant, listed as Sorbic acid) and “remained high” with cats (Example 4 cat trials, formula 89-87 or 89-145 vs incumbent dry palatant, listed as sorbic acid).
Take `O=C(O)C(O)C(O)C(=O)O` (stereo not drawn) [tartaric acid, reference compound]: the “palatability (in words)” value with cats (Example 1 cat trials, dry palatant 1.5% on kibble, vs benchmark) is reported as “significant declines in palatability”. The IR in the experiment on cats (Trial 412, 33% tartaric acid in formula, palatant 1.5% on kibble, vs name brand cat food) is 0.24. Further, in the experiment with cats, the “effect on palatability / taste (in words)” value is listed as “adverse effects on palatability”.
With `O=C(O)CC(O)(CC(=O)O)C(=O)O` [CA, citric acid], the Salmonella in experiment [1] (setting [3]) is recorded as 2.05 ± 0.05^Ba log CFU/g; in experiment [1] (setting [4]), 1.54 ± 0.16^BCDab log CFU/g; in experiment [1] (setting [5]), 1.46 ± 0.09^ABb log CFU/g; in experiment [1] (setting [6]), 0.77 ± 0.39^ABc log CFU/g; in experiment [1] (setting [7]), 0.00 ± 0.00^Bd log CFU/g; in experiment [1] (setting [8]) it was 0.00 ± 0.00^Bd log CFU/g. Also, the “Salmonella counts on challenged cat kibble vs control palatant (in words)” value in experiment [1] was “effective at significantly reducing Salmonella”. Also, the “palatability (in words)” value with cats (setting [9]) was “adequate palatability”. In addition, the IR-A in the experiment on cats (setting [13]) was 0.46% (N.S.).
As for `O=C(O)c1cc(O)c(O)c(O)c1` [GA, gallic acid], in the experiment on cats (setting [9]), the “palatability (in words)” value is given as “very good palatability”. The IR-A is recorded as 0.55 (N.S.) with cats (setting [10]) and 0.70 (p ≤ 0.001) with cats (setting [13]).
